Test results as given in EP0017484A1, “2-Imidazoline derivatives, process for the preparation thereof and the pharmaceutical composition of the same” (FUJISAWA PHARMACEUTICAL CO., LTD., priority 1979, dated 1980).

Columns and labels:
Sprague-Dawley rats = assay: Anti-inflammatory activity: carrageenin hind paw edema; assay type: in vivo; conditions: 100 mg/kg orally 60 minutes before carrageenin (1.5%, 0.1 ml); paw weight after 3 hours versus control animals
Protocol: Ten Sprague-Dawley rats were used per group. The right hind paw of the rat was injected subcutaneously under the plantar surface with 0.1 ml of carrageenin (1.5%). After 3 hours, the animals were sacrificed. The normal and edematous hind paws were cut off at the tibio-dorsal joint and weighed. The difference in the weight of edematous paw and that of normal paw was a measure of the edema. The test compound (100 mg/kg) was administered orally 60 minutes before the irritating agent. Paw swelling of treated animals was compared with that of control animals.

male ddy strain mice = assay: Analgesic activity: acetic acid writhing syndrome; assay type: in vivo; conditions: Mus musculus, po; orally 60 minutes before i.p. 0.6% acetic acid; writhing observed from 3 to 13 minutes; Litchfield-Wilcoxon method
Protocol: Ten male ddy strain mice were used for each dose. To estimate the frequency of writhing syndrome, the animals were observed from 3 to 13 minutes after an intraperitoneal injection of 0.2 ml/10 g of 0.6% acetic acid. The drugs were given orally 60 minutes before acetic acid. The frequency of writhing syndrome in the treated animals was compared with that in the non-treated control animals.
The ED50 value was calculated according to Litchfield-Wilcoxon method.

Cc1ccc(NC2=NCCN2)c(Oc2ccccc2)c1 [2-(2-Phenoxy-4-methylphenyl)amino-2-imidazoline]
Inhibitory effect (Sprague-Dawley rats): 48.4%

COc1cc(Oc2ccccc2NC2=NCCN2)cc(OC)c1OC [2-[2-(3,4,5-Trimethoxyphenoxy)phenyl]amino-2-imidazoline]
ED50 (male ddy strain mice): 50.1 mg/kg
